Laboratory results published in patent US11136329B2, “JAK inhibitors” (Vimalan Biosciences, Inc., priority 2019, dated 2021).
pIC50: −log10 of the molar value.

Tests used:
Format in all cases: biochemical
[1] = target: TYK2 (Homo sapiens (Human), UniProt P29597); assay: JAK/TYK2 assay (Kinase Glo luminescence), TYK2; details: 9 nM enzyme, 2 uM ATP, 30 uM IRS-1, 1 hr
Protocol: (§1) 10 mM test compound stock or 1 mM control compound stock (tofocitinib, ruxolitinib or staurosporine) in DMSO was diluted to 0.4 mM in DMSO. A 3-fold series dilution was then performed in DMSO to generate 10 different compound concentrations. The assay was carried out in 384-well white plate. 0.5 uL of 40× compound DMSO solution at different concentrations was mixed with 10 uL 2× enzyme prepared in reaction buffer (20 mM HEPES, 10 mM MgCl2, 0.01% Tween, 1 mM DTT, pH 7.5). 10 uL 2× substrate mixture prepared in reaction buffer was then added to start the reaction. A short spin was done to settle down all solutions to the bottom of the plate. Final concentrations of test compound in the reaction mixture were 10000, 3333, 1111, 370, 123, 41.2, 13.7, 4.57, 1.52and 0.51 nM. Concentrations of control compound were ten times less. Enzymatic reaction was conducted at 25° C. for 1-2 hours. 10 uL of Kinase Glo Reagents was added to stop the reaction and generate the luminescent signal which was measured using Envision. Luminescence signal was inversely related to kinase activity. […] The mixture without any compound was the positive control.

[2] = target: JAK3 (Homo sapiens (Human), UniProt P52333); assay: JAK/TYK2 assay (Kinase Glo luminescence), JAK3; details: 1.5 nM enzyme, 2 uM ATP, 4 uM pEY, 1 hr
Chain of JAK3 (P52333 whole entry, species assumed): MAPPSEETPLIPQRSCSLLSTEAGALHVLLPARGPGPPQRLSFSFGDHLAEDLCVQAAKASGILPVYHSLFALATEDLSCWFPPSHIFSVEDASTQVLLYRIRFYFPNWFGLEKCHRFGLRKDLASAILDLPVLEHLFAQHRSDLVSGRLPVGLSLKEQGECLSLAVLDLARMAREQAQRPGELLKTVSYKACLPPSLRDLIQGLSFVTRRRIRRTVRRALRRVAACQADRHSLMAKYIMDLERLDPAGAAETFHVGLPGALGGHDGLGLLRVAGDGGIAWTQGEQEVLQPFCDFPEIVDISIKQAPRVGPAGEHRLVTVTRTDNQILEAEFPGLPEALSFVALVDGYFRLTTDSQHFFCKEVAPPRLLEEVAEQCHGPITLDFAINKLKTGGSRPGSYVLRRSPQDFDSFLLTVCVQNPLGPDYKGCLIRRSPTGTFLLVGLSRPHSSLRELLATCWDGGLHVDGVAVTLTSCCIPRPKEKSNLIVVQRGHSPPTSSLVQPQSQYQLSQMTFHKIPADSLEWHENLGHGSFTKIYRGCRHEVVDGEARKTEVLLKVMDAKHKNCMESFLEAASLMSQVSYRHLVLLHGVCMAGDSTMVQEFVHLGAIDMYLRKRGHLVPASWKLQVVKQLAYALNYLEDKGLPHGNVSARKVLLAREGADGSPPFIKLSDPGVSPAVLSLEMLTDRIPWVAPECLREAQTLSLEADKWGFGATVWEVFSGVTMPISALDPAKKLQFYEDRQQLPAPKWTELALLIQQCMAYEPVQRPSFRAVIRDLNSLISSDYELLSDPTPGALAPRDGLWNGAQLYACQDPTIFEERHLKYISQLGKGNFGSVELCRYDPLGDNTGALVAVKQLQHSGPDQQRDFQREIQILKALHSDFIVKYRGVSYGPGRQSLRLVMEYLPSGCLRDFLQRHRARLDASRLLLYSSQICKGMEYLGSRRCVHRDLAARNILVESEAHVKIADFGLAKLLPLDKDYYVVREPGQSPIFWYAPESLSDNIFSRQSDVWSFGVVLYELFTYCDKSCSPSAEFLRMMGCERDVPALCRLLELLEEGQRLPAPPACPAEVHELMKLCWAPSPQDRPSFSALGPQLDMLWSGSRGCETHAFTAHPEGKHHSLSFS
Protocol: as §1

[3] = target: JAK2 (Homo sapiens (Human), UniProt O60674); assay: JAK/TYK2 assay (Kinase Glo luminescence), JAK2; details: 0.8 nM enzyme, 2 uM ATP, 4 uM pEY, 1 hr
Chain of JAK2 (O60674 whole entry, species assumed): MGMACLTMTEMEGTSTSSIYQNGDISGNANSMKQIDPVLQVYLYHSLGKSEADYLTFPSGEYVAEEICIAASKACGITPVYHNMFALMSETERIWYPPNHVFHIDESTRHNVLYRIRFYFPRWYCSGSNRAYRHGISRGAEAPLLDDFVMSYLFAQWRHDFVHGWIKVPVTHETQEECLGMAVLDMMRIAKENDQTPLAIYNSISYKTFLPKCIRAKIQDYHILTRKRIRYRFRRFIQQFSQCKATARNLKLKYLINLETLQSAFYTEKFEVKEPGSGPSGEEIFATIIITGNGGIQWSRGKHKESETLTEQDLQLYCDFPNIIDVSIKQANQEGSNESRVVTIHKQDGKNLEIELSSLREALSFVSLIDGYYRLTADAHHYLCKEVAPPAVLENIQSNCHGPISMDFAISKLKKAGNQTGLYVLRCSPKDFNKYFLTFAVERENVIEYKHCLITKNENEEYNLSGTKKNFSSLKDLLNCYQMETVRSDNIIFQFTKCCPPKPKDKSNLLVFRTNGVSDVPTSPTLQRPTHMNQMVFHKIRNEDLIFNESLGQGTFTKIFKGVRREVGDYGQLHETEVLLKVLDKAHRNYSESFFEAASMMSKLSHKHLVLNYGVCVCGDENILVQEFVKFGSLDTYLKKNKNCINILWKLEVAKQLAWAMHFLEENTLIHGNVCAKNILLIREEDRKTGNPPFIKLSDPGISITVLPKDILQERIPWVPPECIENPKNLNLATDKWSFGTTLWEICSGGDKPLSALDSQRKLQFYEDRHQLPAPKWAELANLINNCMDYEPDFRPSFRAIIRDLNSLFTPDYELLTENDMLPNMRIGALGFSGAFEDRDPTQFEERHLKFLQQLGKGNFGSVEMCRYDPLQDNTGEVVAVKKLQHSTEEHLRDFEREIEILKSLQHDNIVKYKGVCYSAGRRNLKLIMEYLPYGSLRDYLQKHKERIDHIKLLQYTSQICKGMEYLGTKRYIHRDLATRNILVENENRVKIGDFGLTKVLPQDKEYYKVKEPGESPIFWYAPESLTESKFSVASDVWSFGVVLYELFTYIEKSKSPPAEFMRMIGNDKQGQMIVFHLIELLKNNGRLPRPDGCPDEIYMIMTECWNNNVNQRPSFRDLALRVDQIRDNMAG
Protocol: as §1

[4] = target: JAK1 (Homo sapiens (Human), UniProt P23458); assay: JAK/TYK2 assay (Kinase Glo luminescence), JAK1; details: 7.5 nM enzyme, 2 uM ATP, 30 uM IRS-1, 1 hr
Chain of JAK1 (P23458 whole entry, species assumed): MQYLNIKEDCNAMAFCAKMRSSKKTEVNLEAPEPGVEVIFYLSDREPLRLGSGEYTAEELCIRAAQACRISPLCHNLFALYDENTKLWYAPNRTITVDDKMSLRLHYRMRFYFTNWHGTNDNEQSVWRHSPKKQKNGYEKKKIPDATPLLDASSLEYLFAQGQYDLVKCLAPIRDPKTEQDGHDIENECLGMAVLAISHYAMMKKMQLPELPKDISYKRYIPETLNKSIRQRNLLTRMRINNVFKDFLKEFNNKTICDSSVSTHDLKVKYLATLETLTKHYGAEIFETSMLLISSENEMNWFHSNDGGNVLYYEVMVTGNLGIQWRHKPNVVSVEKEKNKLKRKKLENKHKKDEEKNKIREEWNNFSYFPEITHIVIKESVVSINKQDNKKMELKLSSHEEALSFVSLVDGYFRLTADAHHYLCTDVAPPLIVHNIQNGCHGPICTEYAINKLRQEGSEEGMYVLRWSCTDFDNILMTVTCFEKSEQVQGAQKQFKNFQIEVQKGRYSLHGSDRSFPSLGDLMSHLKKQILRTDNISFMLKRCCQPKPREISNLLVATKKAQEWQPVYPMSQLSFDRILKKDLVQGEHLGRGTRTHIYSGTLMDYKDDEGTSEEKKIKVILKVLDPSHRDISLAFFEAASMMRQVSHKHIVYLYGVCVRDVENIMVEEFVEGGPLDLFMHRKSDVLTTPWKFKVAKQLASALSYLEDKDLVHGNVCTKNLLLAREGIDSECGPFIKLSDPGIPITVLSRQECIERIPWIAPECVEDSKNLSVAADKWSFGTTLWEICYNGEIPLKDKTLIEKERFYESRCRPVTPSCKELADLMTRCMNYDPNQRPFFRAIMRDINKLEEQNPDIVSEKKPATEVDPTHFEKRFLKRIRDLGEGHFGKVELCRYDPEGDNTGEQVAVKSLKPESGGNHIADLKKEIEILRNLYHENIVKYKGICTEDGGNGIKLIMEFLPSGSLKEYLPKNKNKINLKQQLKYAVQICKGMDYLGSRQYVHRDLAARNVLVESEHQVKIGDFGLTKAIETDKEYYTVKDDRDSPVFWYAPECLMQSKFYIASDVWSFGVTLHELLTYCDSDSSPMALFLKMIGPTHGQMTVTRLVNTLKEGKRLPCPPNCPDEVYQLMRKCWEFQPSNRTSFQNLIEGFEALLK
Protocol: as §1

Chain of TYK2 (P29597 whole entry, species assumed): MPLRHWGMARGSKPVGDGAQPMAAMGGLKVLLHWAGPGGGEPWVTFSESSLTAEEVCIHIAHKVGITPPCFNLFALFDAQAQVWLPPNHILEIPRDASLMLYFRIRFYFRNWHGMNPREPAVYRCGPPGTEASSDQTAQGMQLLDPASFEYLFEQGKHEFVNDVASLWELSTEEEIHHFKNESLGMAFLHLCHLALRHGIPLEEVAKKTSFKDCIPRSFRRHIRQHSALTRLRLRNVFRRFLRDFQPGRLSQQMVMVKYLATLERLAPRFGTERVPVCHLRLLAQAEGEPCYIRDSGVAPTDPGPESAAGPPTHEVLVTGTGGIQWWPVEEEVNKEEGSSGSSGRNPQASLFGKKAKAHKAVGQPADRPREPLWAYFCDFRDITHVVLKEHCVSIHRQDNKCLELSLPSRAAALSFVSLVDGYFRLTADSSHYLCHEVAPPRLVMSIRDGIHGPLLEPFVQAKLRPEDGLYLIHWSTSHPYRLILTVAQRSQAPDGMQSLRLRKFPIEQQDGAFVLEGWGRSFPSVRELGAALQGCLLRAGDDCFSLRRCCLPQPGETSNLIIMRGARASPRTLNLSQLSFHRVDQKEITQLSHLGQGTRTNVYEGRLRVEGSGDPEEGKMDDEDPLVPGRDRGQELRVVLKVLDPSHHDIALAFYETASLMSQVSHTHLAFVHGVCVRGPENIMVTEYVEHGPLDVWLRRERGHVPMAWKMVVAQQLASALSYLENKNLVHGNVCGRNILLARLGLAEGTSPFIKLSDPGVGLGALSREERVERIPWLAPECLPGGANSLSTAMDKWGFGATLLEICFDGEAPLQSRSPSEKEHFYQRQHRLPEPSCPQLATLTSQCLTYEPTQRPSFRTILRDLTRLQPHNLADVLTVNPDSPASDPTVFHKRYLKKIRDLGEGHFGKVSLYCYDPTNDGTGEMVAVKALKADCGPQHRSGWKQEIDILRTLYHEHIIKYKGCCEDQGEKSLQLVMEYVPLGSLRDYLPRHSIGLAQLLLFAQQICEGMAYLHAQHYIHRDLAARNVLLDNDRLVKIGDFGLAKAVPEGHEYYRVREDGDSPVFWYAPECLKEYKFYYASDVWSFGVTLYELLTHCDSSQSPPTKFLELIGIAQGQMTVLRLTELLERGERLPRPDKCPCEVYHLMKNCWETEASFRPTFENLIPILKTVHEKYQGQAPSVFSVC

SMILES	pIC50 [1]	pIC50 [2]	pIC50 [3]	pIC50 [4]
CC[C@H](Cn1ccc2cnc(Nc3cnn(CC(=O)OC4COC4)c3)nc21)C(C)C [Compound 140, oxetan-3-yl (S)-2-(4-((7-(2-ethyl-3-methylbutyl)-7H-pyrrolo[2,3-d]pyrimidin-2-yl)amino)-1H-pyrazol-1-yl)acetate]	> 7.00	> 7.00	> 7.00	> 7.00
C=CC[C@H](Cn1ccc2cnc(Nc3cnn(CC(=O)OC(C)C)c3)nc21)C(C)C [Compound 102, isopropyl (S)-2-(4-((7-(2-isopropylpent-4-en-1-yl)-7H-pyrrolo[2,3-d]pyrimidin-2-yl)amino)-1H-pyrazol-1-yl)acetate]	> 7.00	> 7.00	> 7.00	> 7.00
CCOC(=O)C(C)n1cc(Nc2ncc3ccn(CC(CC)CC)c3n2)cn1 (centres unmarked) [Compound 28, ethyl 2-(4-((7-(2-ethylbutyl)-7H-pyrrolo[2,3-d]pyrimidin-2-yl)amino)-1H-pyrazol-1-yl)propanoate]	> 7.00	> 7.00	> 7.00	> 7.00
CCOC(=O)Cn1cc(Nc2ncc3ccn(C[C@H]4CC[C@H](OC)CC4)c3n2)cn1 [Compound 129, ethyl 2-(4-((7-(((1r,4r)-4-methoxycyclohexyl)methyl)-7H-pyrrolo[2,3-d]pyrimidin-2-yl)amino)-1H-pyrazol-1-yl)acetate]	> 7.00	> 7.00	> 7.00	6.00 to 7.00
CC[C@H](Cn1ccc2cnc(Nc3cnn(CC(=O)O[C@@H]4CCN(C)C4)c3)nc21)C(C)C [Compound 139, (R)-1-methylpyrrolidin-3-yl 2-(4-((7-((S)-2-ethyl-3-methylbutyl)-7H-pyrrolo[2,3-d]pyrimidin-2-yl)amino)-1H-pyrazol-1-yl)acetate]	> 7.00	> 7.00	> 7.00	> 7.00
CC(C)C(Cn1ccc2cnc(Nc3cnn(CC(=O)O)c3)nc21)C(C)C [Compound 87, 2-(4-((7-(2-isopropyl-3-methylbutyl)-7H-pyrrolo[2,3-d]pyrimidin-2-yl)amino)-1H-pyrazol-1-yl)acetic acid]	> 7.00	> 7.00	> 7.00	> 7.00
CC[C@H](Cn1ccc2cnc(Nc3cnn([C@@H]4CCOC4=O)c3)nc21)C(C)C [Compound 82A, (R)-3-(4-((7-((S)-2-ethyl-3-methylbutyl)-7H-pyrrolo[2,3-d]pyrimidin-2-yl)amino)-1H-pyrazol-1-yl)dihydrofuran-2(3H)-one]	> 7.00	> 7.00	> 7.00	> 7.00
CCOC(=O)Cn1cc(Nc2ncc3ccn(CC4CCSCC4)c3n2)cn1 [Compound 126, ethyl 2-(4-((7-((tetrahydro-2H-thiopyran-4-yl)methyl)-7H-pyrrolo[2,3-d]pyrimidin-2-yl)amino)-1H-pyrazol-1-yl)acetate]	> 7.00		> 7.00	6.00 to 7.00
CCOC(=O)Cn1cc(Nc2ncc3c(Cl)cn(CC4CCCCC4)c3n2)cn1 [Compound 60, ethyl 2-(4-((5-chloro-7-(cyclohexylmethyl)-7H-pyrrolo[2,3-d]pyrimidin-2-yl)amino)-1H-pyrazol-1-yl)acetate]		> 7.00		
CCOC(=O)Cn1cc(Nc2ncc3ccn(CC4CCC4)c3n2)cn1 [Compound 14, ethyl 2-(4-((7-(cyclobutylmethyl)-7H-pyrrolo[2,3-d]pyrimidin-2-yl)amino)-1H-pyrazol-1-yl)acetate]		> 7.00		
CCOC(=O)Cn1cc(Nc2ncc3ccn(CC4CCS(=O)(=O)CC4)c3n2)cn1 [Compound 125, ethyl 2-(4-((7-((1,1-dioxidotetrahydro-2H-thiopyran-4-yl)methyl)-7H-pyrrolo[2,3-d]pyrimidin-2-yl)amino)-1H-pyrazol-1-yl)acetate]	6.00 to 7.00		5.00 to 6.00	5.00 to 6.00
C=CC(=O)Nc1cccc(Cn2ccc3cnc(Nc4cnn(CC(=O)OCC)c4)nc32)c1 [Compound 95, ethyl 2-(4-((7-(3-acrylamidobenzyl)-7H-pyrrolo[2,3-d]pyrimidin-2-yl)amino)-1H-pyrazol-1-yl)acetate]		6.00 to 7.00	6.00 to 7.00	6.00 to 7.00

Results, then the compound that gave them:

pIC50 [1]	pIC50 [2]	pIC50 [3]	pIC50 [4]	SMILES
> 7.00	> 7.00	> 7.00	> 7.00	CC[C@H](Cn1ccc2cnc(Nc3cnn(C(CC(C)(C)O)C(=O)O)c3)nc21)C(C)C (stereo partly drawn) [Compound 147, 2-(4-((7-((S)-2-ethyl-3-methylbutyl)-7H-pyrrolo[2,3-d]pyrimidin-2-yl)amino)-1H-pyrazol-1-yl)-4-hydroxy-4-methylpentanoic acid]
> 7.00	> 7.00	> 7.00	> 7.00	CCOC(=O)C(C)n1cc(Nc2ncc3ccn(C[C@H]4CC[C@H](O)CC4)c3n2)cn1 (some centres unmarked) [Compound 120, ethyl 2-(4-((7-(((1r,4r)-4-hydroxycyclohexyl)methyl)-7H-pyrrolo[2,3-d]pyrimidin-2-yl)amino)-1H-pyrazol-1-yl)propanoate]
	> 7.00			CCOC(=O)Cn1cc(Nc2ncc3ccn(CC4CC4)c3n2)cn1 [Compound 25, ethyl 2-(4-((7-(cyclopropylmethyl)-7H-pyrrolo[2,3-d]pyrimidin-2-yl)amino)-1H-pyrazol-1-yl)acetate]
> 7.00	> 7.00	> 7.00	> 7.00	CC[C@H](Cn1ccc2cnc(Nc3cnn(C4CCOC4=O)c3)nc21)C(C)C (stereo partly drawn) [Compound 82, 3-(4-((7-((S)-2-ethyl-3-methylbutyl)-7H-pyrrolo[2,3-d]pyrimidin-2-yl)amino)-1H-pyrazol-1-yl)dihydrofuran-2(3H)-one]
> 7.00	> 7.00	> 7.00	> 7.00	CCC(Cn1ccc2cnc(Nc3cnn(CC(=O)OCCC#N)c3)nc21)C(C)C (centres unmarked) [Compound 92, 2-cyanoethyl 2-(4-((7-(2-ethyl-3-methylbutyl)-7H-pyrrolo[2,3-d]pyrimidin-2-yl)amino)-1H-pyrazol-1-yl)acetate]
> 7.00	> 7.00	> 7.00	> 7.00	CCOC(=O)Cn1cc(Nc2ncc3ccn(CC4CCCC(F)(F)C4)c3n2)cn1 (centres unmarked) [Compound 36, ethyl 2-(4-((7-((3,3-difluorocyclohexyl)methyl)-7H-pyrrolo[2,3-d]pyrimidin-2-yl)amino)-1H-pyrazol-1-yl)acetate]
	5.00 to 6.00	5.00 to 6.00	5.00 to 6.00	CCOC(=O)c1nc(Cn2ccc3cnc(Nc4cnn(C)c4)nc32)cs1 [Compound 56]
> 7.00		> 7.00	6.00 to 7.00	CCOC(=O)Cn1cc(Nc2ncc3ccn(C[C@H]4CC[C@H](NC)CC4)c3n2)cn1 [Compound 123]
	6.00 to 7.00			CCOC(=O)c1ccc(Nc2ncc3ccn(Cc4ccsc4)c3n2)cc1 [Compound 12, ethyl 4-((7-(thiophen-3-ylmethyl)-7H-pyrrolo[2,3-d]pyrimidin-2-yl)amino)benzoate]
	5.00 to 6.00			CCOC(=O)c1ccc(Cn2ccc3cnc(Nc4cnn(C)c4)nc32)s1 [Compound 58, ethyl 5-((2-((1-methyl-1H-pyrazol-4-yl)amino)-7H-pyrrolo[2,3-d]pyrimidin-7-yl)methyl)thiophene-2-carboxylate]
	5.00 to 6.00	6.00 to 7.00	5.00 to 6.00	CCOC(=O)Cn1ccc2cnc(Nc3cnn(C)c3)nc21 [Compound 57, ethyl 2-(2-((1-methyl-1H-pyrazol-4-yl)amino)-7H-pyrrolo[2,3-d]pyrimidin-7-yl)acetate]
